{"source": "ChEMBL document CHEMBL4418282", "about": "“Compounds and methods for inhibiting fascin” (2017)", "data": [{"tested_on": "4T1", "assay": "Antitumor activity against mouse 4T1 cells implanted in Balb/c mouse assessed as reduction in tumor growth in lungs at 100 mg/kg, administered daily for 2 weeks starting 7 days after tumor implantation and measured on day 28 by methylene blue staining based assay relative to control", "assay_type": "functional", "conditions": "read-out: TGI", "units": {"inhibition in vivo at 100 mg/kg": "%"}, "values": [{"smiles": "Cc1occc1C(=O)Nc1nn(Cc2ccc(C(F)(F)F)cc2)c2ccccc12", "note": "[NP-G2-044]", "inhibition in vivo at 100 mg/kg": "> 90"}, {"smiles": "Cc1ncsc1C(=O)Nc1nn(Cc2ccc(C(F)(F)F)cc2)c2ccccc12", "inhibition in vivo at 100 mg/kg": "> 90"}]}, {"target": "Fascin (Homo sapiens) (UniProt Q16658)", "assay": "Inhibition of purified fascin (unknown origin) assessed as reduction in bundle activity at 50 uM pre-incubated for 30 mins before polymerized actin addition and followed by Alexa fluro 488 phalloidin addition after 30 mins and measured after 1 hr under dark condition relative to control", "conditions": "not given", "units": {"inhibition": "%"}, "values": [{"smiles": "FC(F)(F)c1ccc(Cn2nc(Br)c3ccccc32)cc1", "inhibition": "< 10"}, {"smiles": "CC(=O)Nc1nn(Cc2ccc(C(F)(F)F)cc2)c2cncc(Cl)c12", "inhibition": "< 10"}, {"smiles": "Cc1occc1C(=O)Nc1nn(Cc2ccc(C(F)(F)F)cc2)c2cncc(Cl)c12", "inhibition": "< 10"}, {"smiles": "Cc1nocc1C(=O)Nc1nn(Cc2ccc(C(F)(F)F)cc2)c2cncc(Cl)c12", "inhibition": "< 10"}, {"smiles": "Cc1ncsc1C(=O)Nc1nn(Cc2ccc(C#N)cc2)c2ccccc12", "inhibition": "< 10"}, {"smiles": "FC(F)(F)c1ccc(Cn2nc(-c3ccoc3)c3ccccc32)cc1", "inhibition": "< 10"}, {"smiles": "CCCC(=O)Nc1nn(Cc2ccc(C(F)(F)F)cc2)c2cncc(Cl)c12", "inhibition": "< 10"}, {"smiles": "FC(F)(F)c1ccc(Cn2nc(-c3cccc4ccccc34)c3ccccc32)cc1", "inhibition": "< 10"}, {"smiles": "CNc1nn(Cc2ccc(C(F)(F)F)cc2)c2cncc(Cl)c12", "inhibition": "< 10"}, {"smiles": "O=[N+]([O-])c1cn(Cc2ccc(C(F)(F)F)cc2)c2ccc(Br)cc12", "inhibition": "< 10"}, {"smiles": "N#Cc1ccccc1C(=O)Cc1nn(Cc2ccc(C(F)(F)F)cc2)c2ccccc12", "inhibition": "< 10"}, {"smiles": "FC(F)(F)c1ccc(Cn2nc(-c3ccccc3)c3ccccc32)cc1", "inhibition": "< 10"}, {"smiles": "Cc1ccc(-c2nn(Cc3ccc(C(F)(F)F)cc3)c3ccccc23)o1", "inhibition": "< 10"}, {"smiles": "O=[N+]([O-])c1cn(Cc2ccccc2)c2ccc(Br)cc12", "inhibition": "< 10"}, {"smiles": "Cc1ccc(-c2ccc(C(=O)Nc3nn(Cc4ccc(C(F)(F)F)cc4)c4ccccc34)o2)cc1", "inhibition": "< 10"}, {"smiles": "Cc1occc1-c1nn(Cc2ccc(C(F)(F)F)cc2)c2ccccc12", "inhibition": "< 10"}, {"smiles": "O=C(Nc1nn(Cc2ccc(C(F)(F)F)cc2)c2ccccc12)c1ccc(Cl)cc1", "inhibition": "< 10"}, {"smiles": "O=C(Nc1nn(Cc2ccc(C(F)(F)F)cc2)c2ccccc12)c1cccc(Cl)c1", "inhibition": "< 10"}, {"smiles": "O=C(Nc1nn(Cc2ccc(C(F)(F)F)cc2)c2cncc(Cl)c12)c1ccoc1", "inhibition": "< 10"}]}]}
